“And” between values parts separate entries of the source, which are not always exact repeats. Equal entries are not always repeated. Where two headings read alike, the source gives them in different places.
Assays:
Experiment in all cases: Chymotrypsin coupled prolyl-isomerase assay;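 for Cyp40 prolyl-isomerase raw dose-response reading (Fig. 6c): observed rate constant per well from one-phase association fit in s−1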
[1] = molecular target: T1, CypG (Homo sapiens, UniProt Q13427); type: biochemical
T1 construct: PPIG (UniProtKB Entry Q13427: residues 1–179); His6 with thrombin site (pET28a LIC leader) (N); host or cells: E. coli BL21(DE3)
T1 sequence (Q13427 1-179): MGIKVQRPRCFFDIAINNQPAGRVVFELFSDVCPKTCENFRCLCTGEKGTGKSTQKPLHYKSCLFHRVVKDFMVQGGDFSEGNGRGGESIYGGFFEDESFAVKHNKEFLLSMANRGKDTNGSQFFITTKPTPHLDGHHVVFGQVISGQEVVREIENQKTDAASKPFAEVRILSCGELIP
In short: (§1)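 Chymotrypsin-coupled cis–trans isomerization of Suc-AAPF-AMC (5 µM) catalysed by 5 nM cyclophilin, run cold (2–3 °C) at pH 7.3 with 5 min compound preincubation.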

[2] = molecular target: T2, CypE (Homo sapiens, UniProt Q9UNP9); type: biochemical
T2 construct: PPIE (UniProtKB Entry Q9UNP9: residues 131–301); host or cells: E. coli BL21(DE3)
In short: as §1

[3] = molecular target: T3, CypC (Homo sapiens, UniProt P45877); type: biochemical
T3 construct: PPIC (UniProtKB Entry P45877: residues 24–212); host or cells: E. coli BL21(DE3)
In short: as §1

[4] = molecular target: T4, CypA (Homo sapiens, UniProt P62937); type: biochemical
T4 construct: PPIA (UniProtKB Entry P62937: residues 1–165); made in house; host or cells: E. coli BL21(DE3)
In short: as §1

[5] = molecular target: Cyp40 (Homo sapiens, UniProt Q08752);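 for Cyp40 prolyl-isomerase raw dose-response reading (Fig. 6c): observed rate constant per well from one-phase association fit in s−1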
In short: as §1

T2 sequence (Q9UNP9 131-301): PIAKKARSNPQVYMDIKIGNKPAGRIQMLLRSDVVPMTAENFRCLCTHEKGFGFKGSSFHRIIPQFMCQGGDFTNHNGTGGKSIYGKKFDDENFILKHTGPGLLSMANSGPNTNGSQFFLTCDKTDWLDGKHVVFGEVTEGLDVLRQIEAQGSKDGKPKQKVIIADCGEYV
T3 sequence (P45877 24-212): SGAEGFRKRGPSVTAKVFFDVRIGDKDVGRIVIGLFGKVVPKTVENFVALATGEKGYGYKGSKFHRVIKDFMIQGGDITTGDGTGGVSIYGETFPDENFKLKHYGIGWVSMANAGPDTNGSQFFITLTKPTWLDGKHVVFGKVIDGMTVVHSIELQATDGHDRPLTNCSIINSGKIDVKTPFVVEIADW
Chain of Cyp40 (Q08752 1-183): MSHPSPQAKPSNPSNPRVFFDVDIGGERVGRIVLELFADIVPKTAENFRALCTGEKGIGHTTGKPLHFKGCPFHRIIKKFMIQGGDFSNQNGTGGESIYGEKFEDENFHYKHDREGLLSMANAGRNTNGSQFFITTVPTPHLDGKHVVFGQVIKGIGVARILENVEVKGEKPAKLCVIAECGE
T4 sequence (P62937 whole entry, the tested form may be a part): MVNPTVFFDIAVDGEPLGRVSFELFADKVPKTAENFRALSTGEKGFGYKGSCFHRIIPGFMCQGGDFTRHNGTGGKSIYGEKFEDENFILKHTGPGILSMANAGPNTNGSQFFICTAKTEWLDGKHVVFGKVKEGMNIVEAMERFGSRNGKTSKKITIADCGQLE

NC(=O)C1CCNC(=O)C=CC(=O)N2CCCC(Cc3ccccc3)(C2)C(=O)NC(Cc2ccc(-c3ccc(C=O)c(B(O)O)c3)cc2)C(=O)NCc2ccccc2CC(=O)N1 (centres unmarked) [Compound C3A]
IC50 ([1]; Independent replicate 3, read-out: IC50 CypG): ~26 µM | IC50 ([1]; Independent replicate 4, read-out: IC50 CypG): ~50 µM | IC50 ([1]; wild-type CypG, read-out: Wild-Type Cyclophilin Prolyl Isomerase Inhibition IC50 Values, CypG): 40 µM | higher CypE inhibition potency of C3A over C5A [2]: 75 fold | selectivity for CypE over CypA [2]: > 100 fold | IC50 ([2]; Independent replicate 1, read-out: IC50 CypE): 13 ± 3 nM | IC50 ([2]; Independent replicate 2, read-out: IC50 CypE): 18 ± 6 nM | IC50 ([2]; Independent replicate 3, read-out: IC50 CypE): 9 ± 2 nM | IC50 ([2]; Independent replicate 4, read-out: IC50 CypE): 12 ± 4 nM | selectivity for CypE over the other cyclophilins screened ([2]; prolyl-isomerase IC50): 30- to 4,000 fold | IC50 ([2]; prolyl-isomerase inhibition, 5 nM cyclophilin, read-out: IC50 CypE): 13 ± 4 nM | IC50 ([2]; prolyl-isomerase inhibition, read-out: IC50 CypE): 13 nM | IC50 ([2]; wild-type CypE, read-out: Wild-Type Cyclophilin Prolyl Isomerase Inhibition IC50 Values, CypE): 13 nM | CypC prolyl-isomerase raw dose-response reading (Fig. 6c) ([3]; Dose 0.00457247 µM): 0.03895 and 0.0375 | CypC prolyl-isomerase raw dose-response reading (Fig. 6c) ([3]; Dose 0.0137174 µM): 0.04174 and 0.04247 and 0.04306 | CypC prolyl-isomerase raw dose-response reading (Fig. 6c) ([3]; Dose 0.0411523 µM): 0.05121 and 0.04011 and 0.04386 | CypC prolyl-isomerase raw dose-response reading (Fig. 6c) ([3]; Dose 0.123457 µM): 0.05033 and 0.03342 and 0.04085 | CypC prolyl-isomerase raw dose-response reading (Fig. 6c) ([3]; Dose 0.37037 µM): 0.03932 and 0.03966 and 0.05738 | CypC prolyl-isomerase raw dose-response reading (Fig. 6c) ([3]; Dose 1.11111 µM): 0.0536 and 0.03667 and 0.04316 | CypC prolyl-isomerase raw dose-response reading (Fig. 6c) ([3]; Dose 3.33333 µM): 0.03577 and 0.0377 and 0.04529 | CypC prolyl-isomerase raw dose-response reading (Fig. 6c) ([3]; Dose 10 µM): 0.03905 and 0.04054 and 0.0318 | IC50 ([3]; Independent replicate 1, read-out: IC50 CypC): > 10 µM | IC50 ([3]; Independent replicate 2, read-out: IC50 CypC): 15 ± 4 µM | IC50 ([3]; Independent replicate 3, read-out: IC50 CypC): 20 ± 10 µM | IC50 ([3]; Independent replicate 4, read-out: IC50 CypC): 19 ± 9 µM | IC50 ([3]; wild-type CypC, read-out: Wild-Type Cyclophilin Prolyl Isomerase Inhibition IC50 Values, CypC): 17 µM | CypA prolyl-isomerase raw dose-response reading (Fig. 6c) ([4]; Dose 0.00114312 µM): 0.07306 and 0.07874 and 0.07172 | CypA prolyl-isomerase raw dose-response reading (Fig. 6c) ([4]; Dose 0.00342936 µM): 0.06275 and 0.05859 | CypA prolyl-isomerase raw dose-response reading (Fig. 6c) ([4]; Dose 0.0102881 µM): 0.07757 and 0.05083 and 0.08593 | CypA prolyl-isomerase raw dose-response reading (Fig. 6c) ([4]; Dose 0.0308642 µM): 0.09366 and 0.07648 and 0.07092 | CypA prolyl-isomerase raw dose-response reading (Fig. 6c) ([4]; Dose 0.0925926 µM): 0.1069 and 0.06289 and 0.07689 | CypA prolyl-isomerase raw dose-response reading (Fig. 6c) ([4]; Dose 0.205761 µM): 0.06396 and 0.05394 and 0.06349 and 0.0486 and 0.04768 and 0.0647 and 0.04401 and 0.05288 | CypA prolyl-isomerase raw dose-response reading (Fig. 6c) ([4]; Dose 0.277778 µM): 0.09488 and 0.06 and 0.09425 | CypA prolyl-isomerase raw dose-response reading (Fig. 6c) ([4]; Dose 0.833333 µM): 0.06403 and 0.06231 and 0.07443 | CypA prolyl-isomerase raw dose-response reading (Fig. 6c) ([4]; Dose 2.5 µM): 0.06101 and 0.05306 and 0.05126 | IC50 ([4]; Independent replicate 1, read-out: IC50 CypA): ~3 µM | IC50 ([4]; Independent replicate 2, read-out: IC50 CypA): 2.2 ± 0.7 µM | IC50 ([4]; Independent replicate 3, read-out: IC50 CypA): 1.6 ± 0.7 µM | IC50 ([4]; Independent replicate 4, read-out: IC50 CypA): 4 ± 2 µM | IC50 ([4]; wild-type CypA, read-out: Wild-Type Cyclophilin Prolyl Isomerase Inhibition IC50 Values, CypA): 3 µM | Cyp40 prolyl-isomerase raw dose-response reading (Fig. 6c) ([5]; Dose 0.00457247 µM): 0.0614 and 0.06993 and 0.05711 | Cyp40 prolyl-isomerase raw dose-response reading (Fig. 6c) ([5]; Dose 0.0137174 µM): 0.05865 and 0.05903 and 0.06506 | Cyp40 prolyl-isomerase raw dose-response reading (Fig. 6c) ([5]; Dose 0.0411523 µM): 0.05035 and 0.06856 and 0.04615 | Cyp40 prolyl-isomerase raw dose-response reading (Fig. 6c) ([5]; Dose 0.123457 µM): 0.06664 and 0.05611 and 0.06364 | Cyp40 prolyl-isomerase raw dose-response reading (Fig. 6c) ([5]; Dose 0.37037 µM): 0.05889 and 0.05946 and 0.05108 | Cyp40 prolyl-isomerase raw dose-response reading (Fig. 6c) ([5]; Dose 1.11111 µM): 0.05961 and 0.05287 and 0.0489 | Cyp40 prolyl-isomerase raw dose-response reading (Fig. 6c) ([5]; Dose 3.33333 µM): 0.034 and 0.04378 and 0.03695 | Cyp40 prolyl-isomerase raw dose-response reading (Fig. 6c) ([5]; Dose 10 µM): 0.03483 and 0.03698 and 0.03412 | IC50 ([5]; IC50 Cyp40, Independent replicate 1): 3000 ± 1000 nM | IC50 ([5]; IC50 Cyp40, Independent replicate 2): 1400 ± 500 nM | IC50 ([5]; IC50 Cyp40, Independent replicate 3): 1400 ± 300 nM | IC50 ([5]; IC50 Cyp40, Independent replicate 4): 1900 ± 500 nM | IC50 ([5]; Wild-Type Cyclophilin Prolyl Isomerase Inhibition IC50 Values, Cyp40, wild-type Cyp40): 1800 nM
